Data on nine compounds can be found in publication PMC4284516 (Scientific Reports, 2015).

pIC50: −log10 of the molar value. Where only a bound is given, the exact number is not on record here.

The test system of series [1] is OF1 mice. The experiment in a line: Mouse tetrad experiments. The following applies: 15 mg/kg i.p.
Series [2] deals with mice. As to conditions: cited from earlier work.
For series [3], the system named is OF1 mice. The experiment in a line: 6-Hz electroshock-induced seizures. As to conditions: levetiracetam 20 mg/kg i.p. In kind it is in vivo.
The subject of series [4] is PBQ-induced writhing in OF1 mice. Nature of the series: Phenylbenzoquinone. The series is classed as in vivo. The following applies: combined with SAR127303 3 mg/kg p.o.
Series [5] has as its system Swiss mice. The experiment in a line: Novel object recognition task.
Series [6] has as its system rat hippocampal slices. Nature of the series: [3H]ACh release evoked by electrical depolarisation in hippocampal slices. The series is classed as cell-based, Sprague-Dawley rats. As to conditions: rimonabant 10^−7 mol/L.
In series [7] the target is T1, human recombinant MAGL (rhMAGL) (Homo sapiens, UniProt Q99685).
T1 sequence (Q99685 1-303): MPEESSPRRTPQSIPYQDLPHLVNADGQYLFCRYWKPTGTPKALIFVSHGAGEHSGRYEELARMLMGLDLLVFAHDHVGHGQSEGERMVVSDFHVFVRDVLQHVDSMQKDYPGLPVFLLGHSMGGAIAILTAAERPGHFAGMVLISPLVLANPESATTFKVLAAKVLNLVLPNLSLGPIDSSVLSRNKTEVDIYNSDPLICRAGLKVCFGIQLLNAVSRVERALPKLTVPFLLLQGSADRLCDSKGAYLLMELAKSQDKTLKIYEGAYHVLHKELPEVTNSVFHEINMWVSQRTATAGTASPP
Nature of the series: MAGL biochemical assay. As to conditions: read-out: IC50, rhMAGL; 4-nitrophenylacetate substrate; N = 3.

Series [8] deals with NMRI mice. Nature of the series: Y-maze test. The following applies: 1.5 mg/kg, i.p. In kind it is in vivo.
For series [9], the system named is MAGL over FAAH. As to conditions: cited from earlier work.
Series [10] deals with OF1 mice. Nature of the series: Elevated plus-maze test. The following applies: diazepam 3 mg/kg p.o., 60 min before testing.
The subject of series [11] is OF1 mice. The experiment in a line: Pentylenetetrazol. As to conditions: diazepam 3 mg/kg i.p.

Regarding `Cc1c(C(=O)c2cccc3ccccc23)c2cccc3c2n1[C@H](CN1CCOCC1)CO3` [WIN55,512-2], in [1], the “antinociception in the tail-flick test” value is recorded as “significant antinociceptive”; the catalepsy entry is “cataleptic”; the “duration of antinociceptive, hypothermic and cataleptic effects” value is recorded as “at least 4 hours”; the hypothermia result is “hypothermic”. Moreover, the locomotor activity entry in series [1] is “decreased significantly”.
Turning to `O=C(Oc1ccc([N+](=O)[O-])cc1)N1CCC(C(O)(c2ccc3c(c2)OCO3)c2ccc3c(c2)OCO3)CC1` [JZL184], the “dose impairing MWM performance (dose that also inhibits FAAH)” value in series [2] was 40 mg/kg.
Take `CC[C@@H](C(N)=O)N1CCCC1=O` [levetiracetam]: the “protection in the 6-Hz test” value in series [3] is “full protection”.
Consider `Cc1c(C(=O)NN2CCCCC2)nn(-c2ccc(Cl)cc2Cl)c1-c1ccc(Cl)cc1` [rimonabant], for which the “blockade of the anti-writhing effects of SAR127303” value in [4] was “blocked”. The “novelty index ratio when coadministered with SAR127303” value in series [5] (rimonabant 3 mg/kg + SAR127303 1 mg/kg) is listed as “significantly different from chance level”. In series [6], the “reversal of the effect of 2-AG at 10^−8 mol/L on [3H]-ACh release” value is “completely reversed”.
By pIC50 is commonly meant the negative decadic logarithm of the IC50, by convention in mol/L. With `COc1ccc2c(C3COC(CCCNC(=O)OCC(N)=O)OC3)cccc2c1` (stereo not shown) [SSR411298], the negative logarithm of the IC50 (pIC50) in [7] was under 5.00.
Turning to `c1ccc(C2(N3CCCCC3)CCCCC2)cc1` [PCP], the “spontaneous alternation versus vehicle” value in series [8] is on record as “significant reduction”.
With `O=C(OC(C(F)(F)F)C(F)(F)F)N1CCC(C(O)(c2ccc3c(c2)OCO3)c2ccc3c(c2)OCO3)CC1` [KML29], the “selectivity for MAGL over FAAH and most other serine hydrolases” value in series [9] is on record as over 100 fold.
On to `C[C@]12N[C@H](Cc3ccccc31)c1ccccc12` [MK-801], for which the “novelty index ratio versus control vehicle” value in series [5] (0.125 mg/kg) was “significantly reduced”.
Turning to `CN1C(=O)CN=C(c2ccccc2)c2cc(Cl)ccc21` [diazepam], the “percentage of time in open arms” value in series [10] was “opposite effects”. Further, in series [11], the “protection in the PTZ test” value is listed as “full protection”.
